Measured values as given in BindingDB's records for doi:10.1021/jm015552m (Universita' Degli Studi Di Siena, 2001).

Assays:
[1] = target: Glutamate receptor 1 (Rattus norvegicus) (UniProt P19490); experiment: Binding affinity towards GluR1 receptor from rat brain
[2] = target: Glutamate receptor 1 (Rattus norvegicus) (UniProt P19490); experiment: The potency at recombinant rat AMPA-R was measured on GluR1 receptor expressed in Xenopus Laevis oocytes

Glutamate receptor 1 (Rattus norvegicus), sequence (P19490 whole entry, looked up): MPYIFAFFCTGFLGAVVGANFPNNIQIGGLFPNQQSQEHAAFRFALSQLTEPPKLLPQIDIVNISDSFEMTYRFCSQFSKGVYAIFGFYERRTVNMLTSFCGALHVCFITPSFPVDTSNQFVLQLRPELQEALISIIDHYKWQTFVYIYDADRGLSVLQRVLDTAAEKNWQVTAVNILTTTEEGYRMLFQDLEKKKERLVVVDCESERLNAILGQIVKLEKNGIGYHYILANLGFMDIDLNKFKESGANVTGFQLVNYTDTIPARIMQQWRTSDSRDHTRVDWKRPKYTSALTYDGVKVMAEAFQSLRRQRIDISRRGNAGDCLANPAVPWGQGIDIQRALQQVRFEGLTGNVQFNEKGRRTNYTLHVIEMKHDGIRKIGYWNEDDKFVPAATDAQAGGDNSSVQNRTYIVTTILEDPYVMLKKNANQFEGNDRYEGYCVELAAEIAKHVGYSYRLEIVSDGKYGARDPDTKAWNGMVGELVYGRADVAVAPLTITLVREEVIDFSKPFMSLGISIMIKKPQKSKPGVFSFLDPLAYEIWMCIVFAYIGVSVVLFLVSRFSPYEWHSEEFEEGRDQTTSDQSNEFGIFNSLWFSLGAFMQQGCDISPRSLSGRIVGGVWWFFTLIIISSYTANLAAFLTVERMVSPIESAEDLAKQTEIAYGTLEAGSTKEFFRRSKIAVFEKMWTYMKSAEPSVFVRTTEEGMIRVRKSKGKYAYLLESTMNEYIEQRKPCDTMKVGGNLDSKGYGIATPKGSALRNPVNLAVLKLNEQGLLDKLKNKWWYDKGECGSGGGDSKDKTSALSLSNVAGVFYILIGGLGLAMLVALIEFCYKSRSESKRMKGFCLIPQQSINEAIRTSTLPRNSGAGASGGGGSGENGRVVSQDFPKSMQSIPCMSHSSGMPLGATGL

Ki [1]: 0.109 µM
EC50 [2]: 24.9 µM
Structure (SMILES): N[C@@H](Cn1c2c(c(=O)[nH]c1=O)CCC2)C(=O)O [2-Amino-3-(2,4-dioxo-2,3,4,5,6,7-hexahydro-cyclopentapyrimidin-1-yl)-propionic acid]
